Measured values reported in the NIST ThermoML archive (doi:10.1016/j.jct.2018.03.013).

Assay: xn = mol fraction of the nth substance listed
Conditions: 100 kPa, Liquid; for speed of sound: Frequency=3 MHz, Linear variable-path acoustic interferometer; for mass density: Pycnometric method

C=C(C)C(=O)OCCCC [butyl 2-methyl-2-propenoate] + CC#N
Conditions	mass density, 293.15 K [kg/m3]	mass density, 298.15 K [kg/m3]	mass density, 303.15 K [kg/m3]	speed of sound, 293.15 K [m/s]	speed of sound, 298.15 K [m/s]	speed of sound, 303.15 K [m/s]
x2 = 0	895.19	890.48	885.78	1241.7	1222.1	1202.4
x2 = 0.0681	892.7	887.98	883.27	1244.4	1224.8	1205.3
x2 = 0.1359	889.93	885.2	880.47	1247.2	1227.6	1208.1
x2 = 0.1976	887.12	882.38	877.64	1249.7	1230	1210.5
x2 = 0.2728	883.27	878.51	873.75	1252.7	1232.9	1213.3
x2 = 0.3442	879.11	874.33	869.55	1255.5	1235.5	1216
x2 = 0.4143	874.45	869.65	864.84	1258.2	1238.2	1218.7
x2 = 0.4658	870.61	865.78	860.95	1260.3	1240.2	1220.7
x2 = 0.5243	865.72	860.86	856.01	1262.7	1242.5	1223.1
x2 = 0.5649	861.96	857.08	852.2	1264.5	1244.2	1224.8
x2 = 0.639	854.15	849.22	844.3	1268.1	1247.7	1228.3
x2 = 0.7112	845.09	840.11	835.14	1272.2	1251.6	1232.3
x2 = 0.7836	834.14	829.09	824.06	1277.3	1256.4	1237.2
x2 = 0.8558	820.72	815.6	810.49	1283.7	1262.6	1243.5
x2 = 0.928	803.86	798.66	793.46	1292.4	1271	1252
